Measurements as given in PMC11241527, “Long-Chain Alkylthio Cyclodextrin Derivatives for Modulation of Quorum-Sensing-Based Bioluminescence in Aliivibrio fischeri Model System” (International Journal of Molecular Sciences, 2024).
Where two headings read alike, the source gives them in different places.

Assays:
A. fischeri [1] = assay: Optical density measurement, population growth assay; type: cell-based, Aliivibrio fischeri; conditions: for inhibition of population growth (optical density): within 30, 60 and 120 min, regardless of the concentration; for inhibition at 10000 µM: 10 mM; for inhibition at 2000 µM: 2 mM, read-out: inhibition of cell proliferation (population growth), maximum
Description: (§1) The bacterial strain A. fischeri (NRRL B-111 77) was cultured and maintained in the laboratory under axenic circumstances. The 16 h old (overnight) cell culture applied for the tests was prepared by inoculating 30 mL of Photobacterium medium with an ampoule of lyophilized bacteria. The culture was shaken in the dark at 160 rpm, 24 °C, to an optical density of 0.6 at 600 nm (OD600).
The measurements were carried out as described by Molnár et al. (2021). The OD was measured after the incubation period, following the bioluminescence inhibition assay with DIALAB ELx800 ELISA Microplate Reader (Dialab GmbH, Wiener Neudorf, Austria) at the wavelength of 630 nm.

A. fischeri [2] = assay: Cell viability, tetrazolium (MTT) reduction assay; type: cell-based, Aliivibrio fischeri; conditions: 120 min; for inhibition in the viability: 10 mM; for inhibitive effect on cell viability, maximum: 0.08 mM
Description: The cell viability assay characterizing the activity of the hydrogen transport (the dehydrogenase enzyme activity) is based on the spectrophotometric measurement of the absorbance of a formazan product of the reduction in the tetrazolium salts.
The absorbance—which we determined after 120 min of exposure—is directly proportional to the metabolic activity of the cells.
To examine the potential influence of the CDs on the vitality of the bacteria, an enzyme activity assay was applied using 3-(4,5-dimethylthiazol-2-yl)-2,5-diphenyltetrazolium bromide (MTT).
Metabolically active cells reduce the […] MTT into a black formazan product, whose concentration is directly proportional to the activity of the viable cells. Following the population growth assay, the assay was performed in the same microplates by adding 30 μL of 4 mg/mL sterile MTT solution to each well.
The microtiter plate was then incubated for 30 min until color development.

[3] = Solubility in water at 25 °C; type: physicochemical; conditions: for solubility: read-out: WS, water solubility
Description: The characteristics: abbreviations (A), the molecular weight (MW), the solubility in water at 25 °C (WS), and the degree of substitution (DS) of the tested CDs are presented in Table 4 and Table 5.

A. fischeri [4] = assay: Bioluminescence inhibition assay in the Aliivibrio fischeri model system; type: cell-based; conditions: for EC20: 20% inhibition of bioluminescence after 120 min exposure; for inhibition at 2000 µM: read-out: inhibition of bioluminescence; for inhibitory effect on bioluminescence, upper limit in any case: any tested concentration and time, not statistically significant
Description: The time- and concentration-dependent effect of native α- and β-CDs, their N,N,N-trimethyl-ammoniopropyl derivatives, and novel alkylthio derivatives were tested in a series of short-term (30–120 min) experiments at 0.008–10 mM concentration range. To differentiate between the quorum-quenching effect and the cytotoxic effect of the CDs, bioluminescence as well as cell viability (the population growth and the enzyme activity) were determined.
as §1
The tested CD molecules were suspended in sterile distilled water and sterilized in an autoclave. A dilution series was prepared from the stock solutions (suspensions), covering a 0.04–50 mM concentration range.
The experiments were carried out with overnight A. fischeri cell culture in 96-well microtiter plates with a total volume of 250 µL. Fifty microliters of the members of the fivefold dilution series made from stock solutions were added to the wells of a sterile, transparent, 96-well, round-bottomed Sarstedt microtiter plate in four replicates. Distilled water was used as a negative control in the same volume.
To ensure the validity of data and verify the sensitivity of the bacteria, a five-member CuSO4 dilution series (1.6 ppm, 8 ppm, 40 ppm, 200 ppm, and […]) was used as a positive control. After that, 200 μL of the diluted overnight culture was added to the wells, except for the blank samples, for which 200 μL of Photobacterium medium was added instead.
The bioluminescence intensity was measured with a Fluostar Optima microplate reader (BMG Labtech, Ortenberg, Germany; fluorescence detection limit > 30 amol/well ATP) after 30, 60, and 120 min of exposure. The evaluation of the results was carried out as described by Ujaczki et al. (2015).
The determination of the concentration–response relationship is a method employed in the field of environmental toxicology, with the objective of objectively assessing the effects of different chemicals. The effective concentration endpoints (EC20 and EC50 values) of the tests are uniformly used for the quantification and comparison of the effects of chemicals and environmental matrices.

[5] = Aggregation studies by dynamic light scattering (volume particle size distribution); type: physicochemical; conditions: 1% aqueous solution, 25 °C
Description: Most CDs are prone to aggregation in aqueous solution due to their numerous hydroxyl moieties.
The aggregation behavior (nanoparticle formation) was studied by photon correlation spectroscopy (dynamic light scattering) using Malvern Zetasizer Nano ZS (Malvern Instruments, Malvern, UK) equipment at 25 °C using 1% aqueous solution.

A. fischeri [6] = system: A. fischeri; parameters: method as in PMID 33321169; conditions: cited from earlier work
[7] = Aliivibrio fischeri, 0.5 h, 30 min
[8] = Aliivibrio fischeri, 1 h, 60 min
[9] = Aliivibrio fischeri, 2 h, 120 min

N,N,N-Trimethylammoniopropyl-6-monodeoxy-6-monohexadecanethiol-β-CD [QA-6S-C16-β-CD (9)]
inhibition of population growth (A. fischeri [1]; 5 mM, 120 min): 38% | inhibition of cell viability (A. fischeri [2]; 5 mM): 35% | WS, water solubility [3]: ~10000 µg/mL | inhibitory effect (QS inhibition, bioluminescence) (A. fischeri [4]; 1 mM, time not stated): 48% | EC20 (A. fischeri [4]): 170 µM | average size of larger aggregates [5]: 111 nm | size of larger aggregates with high polydispersity [5]: 50–500 nm

N,N,N-Trimethylammoniopropyl-α-CD [QA-α-CD (2), reference compound]
inhibition of population growth (optical density) (A. fischeri [1]): up to 30% | inhibition in the viability (A. fischeri [2]): 41% | EC20 (A. fischeri [4]): 3140 µM | inhibition of bioluminescence (significance) (A. fischeri [4]; tested concentrations 0.08-10 mM, examined period 30-120 min): no significant inhibition

OC[C@H]1O[C@@H]2O[C@H]3[C@H](O)[C@@H](O)[C@@H](O[C@H]4[C@H](O)[C@@H](O)[C@@H](O[C@H]5[C@H](O)[C@@H](O)[C@@H](O[C@H]6[C@H](O)[C@@H](O)[C@@H](O[C@H]7[C@H](O)[C@@H](O)[C@@H](O[C@H]8[C@H](O)[C@@H](O)[C@@H](O[C@H]9[C@H](O)[C@@H](O)[C@@H](O[C@H]1[C@H](O)[C@H]2O)O[C@@H]9CO)O[C@@H]8CO)O[C@@H]7CO)O[C@@H]6CO)O[C@@H]5CO)O[C@@H]4CO)O[C@@H]3CO [γ-CD]
quorum-quenching efficacy (reduction of bacterial bioluminescence) (A. fischeri [6]; previous study): ineffective

CCCCCCCCCCCCSC[C@H]1O[C@@H]2O[C@H]3[C@H](O)[C@@H](O)[C@@H](O[C@H]4[C@H](O)[C@@H](O)[C@@H](O[C@H]5[C@H](O)[C@@H](O)[C@@H](O[C@H]6[C@H](O)[C@@H](O)[C@@H](O[C@H]7[C@H](O)[C@@H](O)[C@@H](O[C@H]1[C@H](O)[C@H]2O)O[C@@H]7CO)O[C@@H]6CO)O[C@@H]5CO)O[C@@H]4CO)O[C@@H]3CO [6S-C12-α-CD (3), 6-monodeoxy-6-monododecanethiol-α-CD]
inhibition at 10000 µM (A. fischeri [1]; [7]): 50% | inhibition at 10000 µM (A. fischeri [1]; [8]): 54% | inhibition at 10000 µM (A. fischeri [1]; [9]): 59% | decrease in cell viability, maximum (A. fischeri [2]; at 2 and 10 mM): 40% | solubility [3]: > 10000 µg/mL | decrease in bioluminescence intensity (A. fischeri [4]; 0.4 mM, 120 min): 71% | decrease in bioluminescence intensity (A. fischeri [4]; 10 mM, 120 min): 79% | EC20 (A. fischeri [4]): 60 µM | EC50 (A. fischeri [4]; Aliivibrio fischeri, 2 h): 160 µM | inhibition at 2000 µM (A. fischeri [4]; Aliivibrio fischeri, 2 h): 85%

OC[C@H]1O[C@@H]2O[C@H]3[C@H](O)[C@@H](O)[C@@H](O[C@H]4[C@H](O)[C@@H](O)[C@@H](O[C@H]5[C@H](O)[C@@H](O)[C@@H](O[C@H]6[C@H](O)[C@@H](O)[C@@H](O[C@H]7[C@H](O)[C@@H](O)[C@@H](O[C@H]8[C@H](O)[C@@H](O)[C@@H](O[C@H]1[C@H](O)[C@H]2O)O[C@@H]8CO)O[C@@H]7CO)O[C@@H]6CO)O[C@@H]5CO)O[C@@H]4CO)O[C@@H]3CO [β-CD (5), Native β-CD, reference compound]
inhibition at 80 µM (A. fischeri [1]; Aliivibrio fischeri, 0.5 h, read-out: inhibition of population growth, maximum): ≤ 34% | inhibitive effect on cell viability, maximum (A. fischeri [2]): 15% | inhibitory effect on bioluminescence, upper limit in any case (A. fischeri [4]): ≤ 35%

N,N,N-Trimethylammoniopropyl-6-monodeoxy-6-monodecanethiol-α-CD [QA-6S-C10-α-CD (4)]
inhibition of population growth (optical density) (A. fischeri [1]): up to 30% | inhibition of the enzyme activity (cell viability) (A. fischeri [2]; regardless of concentration): 24–27% | reduction of bioluminescence (A. fischeri [4]; 1 mM, 120 min): 69% | EC20 (A. fischeri [4]): 200 µM | EC50 (A. fischeri [4]; 50% inhibition of bioluminescence after 120 min exposure, read-out: EC50): 240 µM

N,N,N-Trimethylammoniopropyl-β-CD [QA-β-CD (6), reference compound]
inhibition of population growth, maximum (A. fischeri [1]; 0.08 mM, 30 min of exposure): ≤ 34% | inhibitive effect on cell viability, maximum (A. fischeri [2]): 10% | WS, water solubility [3]: >500000 µg/mL | inhibitory effect on bioluminescence, upper limit in any case (A. fischeri [4]): ≤ 35%

Native α-CD [α-CD (1), reference compound]
inhibition of population growth (optical density) (A. fischeri [1]): up to 30% | inhibition in the viability (A. fischeri [2]): 29% | inhibition of bioluminescence (A. fischeri [6]; 10 mM, 120 min exposure time): over 60% | inhibition of bioluminescence (significance) (A. fischeri [4]): no significant inhibition | EC20 (A. fischeri [4]): 80 µM

CCCCCCCCCCCCSC[C@H]1O[C@@H]2O[C@H]3[C@H](O)[C@@H](O)[C@@H](O[C@H]4[C@H](O)[C@@H](O)[C@@H](O[C@H]5[C@H](O)[C@@H](O)[C@@H](O[C@H]6[C@H](O)[C@@H](O)[C@@H](O[C@H]7[C@H](O)[C@@H](O)[C@@H](O[C@H]8[C@H](O)[C@@H](O)[C@@H](O[C@H]1[C@H](O)[C@H]2O)O[C@@H]8CO)O[C@@H]7CO)O[C@@H]6CO)O[C@@H]5CO)O[C@@H]4CO)O[C@@H]3CO [6S-C12-β-CD (7), 6-monodeoxy-6-monododecanethiol-β-CD]
inhibition at 2000 µM (A. fischeri [1]; [7]): 72% | inhibition at 2000 µM (A. fischeri [1]; [8]): 69% | inhibition at 2000 µM (A. fischeri [1]; [9]): 65% | vitality-reducing effect (cell viability) (A. fischeri [2]; 2 mM): 41% | solubility [3]: > 10000 µg/mL | EC20 (A. fischeri [4]): 90 µM | inhibition at 2000 µM (A. fischeri [4]; Aliivibrio fischeri, 0.5 h): 77% | inhibition at 2000 µM (A. fischeri [4]; Aliivibrio fischeri, 1 h): 76% | EC50 (A. fischeri [4]; Aliivibrio fischeri, 2 h): 760 µM | inhibition at 2000 µM (A. fischeri [4]; Aliivibrio fischeri, 2 h): 70%
